Measurements reported in ChEMBL document CHEMBL5257023, “Identification of leads for antiproliferative activity on MDA-MB-435 human breast cancer cells through pharmacophore and CYP1A1-mediated metabolism” (Eur J Med Chem, 2016).

Experiments:
[1] = system: MDA-MB-435; test: Anticancer activity against human MDA-MB-435 cells assessed as cell growth at 10 uM incubated for 48 hrs by SRB assay; format: functional; details: read-out: Activity
[2] = system: MDA-MB-468; test: Anticancer activity against human MDA-MB-468 cells assessed as inhibition of cell growth incubated for 48 hrs by SRB assay; format: functional; details: for CC50: read-out: LC50 (the source's name)
[3] = system: MDA-MB-435; test: Anticancer activity against human MDA-MB-435 cells assessed as cell growth at 1 uM incubated for 48 hrs by SRB assay; format: functional; details: read-out: Activity
[4] = system: NCI-H226; test: Anticancer activity against human NCI-H226 cells assessed as inhibition of cell growth incubated for 48 hrs by SRB assay; format: functional
[5] = system: NCI-H226; test: Anticancer activity against human NCI-H226 cells assessed as cell growth at 0.1 uM incubated for 48 hrs by SRB assay; format: functional; details: read-out: Activity
[6] = system: MDA-MB-435; test: Anticancer activity against human MDA-MB-435 cells assessed as cell growth at 0.1 uM incubated for 48 hrs by SRB assay; format: functional; details: read-out: Activity
[7] = system: MCF7; test: Anticancer activity against human MCF7 cells assessed as cell growth at 1 uM incubated for 48 hrs by SRB assay; format: functional; details: read-out: Activity
[8] = target: T1, CYP1A1 (Homo sapiens, UniProt P04798); test: Inhibition of recombinant CYP1A1 (unknown origin) assessed as residual enzyme activity using 7-ethoxyresorufin as substrate at 1 uM incubated for 15 mins by resorufin dye based spectrofluorimetry (reference value: 100%); format: ADME; details: recombinant CYP1A1, probe 7-ethoxyresorufin, read-out: Activity
T1 sequence (P04798 whole entry): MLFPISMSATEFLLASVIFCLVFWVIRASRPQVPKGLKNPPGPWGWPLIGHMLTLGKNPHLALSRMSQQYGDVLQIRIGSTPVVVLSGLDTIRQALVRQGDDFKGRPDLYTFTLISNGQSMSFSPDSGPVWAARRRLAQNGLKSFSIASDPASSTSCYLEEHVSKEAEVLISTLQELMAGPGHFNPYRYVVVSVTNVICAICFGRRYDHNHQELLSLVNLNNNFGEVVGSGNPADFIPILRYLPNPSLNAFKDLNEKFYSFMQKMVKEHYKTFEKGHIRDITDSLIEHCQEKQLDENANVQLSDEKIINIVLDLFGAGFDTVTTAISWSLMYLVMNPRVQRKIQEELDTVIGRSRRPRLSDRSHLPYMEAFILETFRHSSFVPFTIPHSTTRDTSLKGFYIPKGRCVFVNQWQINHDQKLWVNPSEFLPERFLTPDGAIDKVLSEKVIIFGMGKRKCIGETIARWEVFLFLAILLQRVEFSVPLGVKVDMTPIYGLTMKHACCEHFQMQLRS

[9] = target: T1, CYP1A1; test: Inhibition of recombinant CYP1A1 (unknown origin) assessed as residual enzyme activity using 7-ethoxyresorufin as substrate at 0.01 uM incubated for 15 mins by resorufin dye based spectrofluorimetry (reference value: 100%); format: ADME; details: recombinant CYP1A1, probe 7-ethoxyresorufin, read-out: Activity
[10] = system: MDA-MB-468; test: Anticancer activity against human MDA-MB-468 cells assessed as cell growth at 100 uM incubated for 48 hrs by SRB assay; format: functional; details: read-out: Activity
[11] = system: NCI-H226; test: Anticancer activity against human NCI-H226 cells assessed as cell growth at 1 uM incubated for 48 hrs by SRB assay; format: functional; details: read-out: Activity
[12] = target: T1, CYP1A1; test: Inhibition of recombinant CYP1A1 (unknown origin) assessed as residual enzyme activity using 7-ethoxyresorufin as substrate at 0.1 uM incubated for 15 mins by resorufin dye based spectrofluorimetry (reference value: 100%); format: ADME; details: recombinant CYP1A1, probe 7-ethoxyresorufin, read-out: Activity
[13] = target: T1, CYP1A1; test: Inhibition of recombinant CYP1A1 (unknown origin) assessed as residual enzyme activity using 7-ethoxyresorufin as substrate at 100 uM incubated for 15 mins by resorufin dye based spectrofluorimetry (reference value: 100%); format: ADME; details: recombinant CYP1A1, probe 7-ethoxyresorufin, read-out: Activity
[14] = system: MDA-MB-435; test: Anticancer activity against human MDA-MB-435 cells assessed as cell growth at 100 uM incubated for 48 hrs by SRB assay; format: functional; details: read-out: Activity
[15] = system: MCF7; test: Anticancer activity against human MCF7 cells assessed as cell growth at 10 uM incubated for 48 hrs by SRB assay; format: functional; details: read-out: Activity
[16] = system: MDA-MB-468; test: Anticancer activity against human MDA-MB-468 cells assessed as cell growth at 10 uM incubated for 48 hrs by SRB assay; format: functional; details: read-out: Activity
[17] = system: MDA-MB-468; test: Anticancer activity against human MDA-MB-468 cells assessed as cell growth at 0.1 uM incubated for 48 hrs by SRB assay; format: functional; details: read-out: Activity
[18] = target: T2, Cytochrome P450 1A1 (Homo sapiens, UniProt P04798); test: Inhibition of recombinant CYP1A1 (unknown origin) assessed as decrease in EROD activity using 7-ethoxyresorufin as substrate upto 100 uM incubated for 15 mins by resorufin dye based spectrofluorimetry; format: ADME; details: recombinant enzyme, 0.25 h
T2 sequence (P04798 whole entry): T1 sequence (P04798 whole entry)

[19] = system: MCF7; test: Anticancer activity against human MCF7 cells assessed as inhibition of cell growth incubated for 48 hrs by SRB assay; format: functional; details: for CC50: read-out: LC50 (the source's name)
[20] = target: T1, CYP1A1; test: Inhibition of recombinant CYP1A1 (unknown origin) assessed as residual enzyme activity using 7-ethoxyresorufin as substrate at 10 uM incubated for 15 mins by resorufin dye based spectrofluorimetry (reference value: 100%); format: ADME; details: recombinant CYP1A1, probe 7-ethoxyresorufin, read-out: Activity
[21] = system: MDA-MB-468; test: Anticancer activity against human MDA-MB-468 cells assessed as cell growth at 1 uM incubated for 48 hrs by SRB assay; format: functional; details: read-out: Activity
[22] = system: NCI-H226; test: Anticancer activity against human NCI-H226 cells assessed as cell growth at 100 uM incubated for 48 hrs by SRB assay; format: functional; details: read-out: Activity
[23] = system: NCI-H226; test: Anticancer activity against human NCI-H226 cells assessed as cell growth at 10 uM incubated for 48 hrs by SRB assay; format: functional; details: read-out: Activity
[24] = system: MCF7; test: Anticancer activity against human MCF7 cells assessed as cell growth at 0.1 uM incubated for 48 hrs by SRB assay; format: functional; details: read-out: Activity
[25] = system: MDA-MB-435; test: Anticancer activity against human MDA-MB-435 cells assessed as inhibition of cell growth incubated for 48 hrs by SRB assay; format: functional
[26] = system: MCF7; test: Anticancer activity against human MCF7 cells assessed as cell growth at 100 uM incubated for 48 hrs by SRB assay; format: functional; details: read-out: Activity
[27] = target: T1, CYP1A1; test: Inhibition of recombinant CYP1A1 (unknown origin) assessed as residual enzyme activity using 7-ethoxyresorufin as substrate at 50 uM incubated for 15 mins by resorufin dye based spectrofluorimetry (reference value: 100%); format: ADME; details: recombinant CYP1A1, probe 7-ethoxyresorufin, read-out: Activity

Row | SMILES | growth at 10 µM [1] [%] | GI50 [2] [µM] | TGI [2] [µM] | CC50 [2] [µM] | growth at 1 µM [3] [%] | GI50 [4] [µM] | LC50 (concentration killing 50% of cells) [4] [µM] | TGI [4] [µM] | growth at 0.1 µM [5] [%] | growth at 0.1 µM [6] [%] | growth at 1 µM [7] [%] | activity at 0.25 h, 1 µM [8] [%] | activity at 0.25 h, 0.01 µM [9] [%] | growth at 100 µM [10] [%] | growth at 1 µM [11] [%] | activity at 0.25 h, 0.1 µM [12] [%] | activity at 0.25 h, 100 µM [13] [%] | growth at 100 µM [14] [%] | growth at 10 µM [15] [%] | growth at 10 µM [16] [%] | further results
1 | Cc1cc(C)n(C(=O)CNc2ccccc2Cl)n1 | 100 | 89.3 | > 100 | > 100 | 100 | > 100 | > 100 | > 100 | 82.5 | 100 | 82.9 | 99.9 | 101 | 43.3 | 73.4 | 100 | 99.3 | 85.9 | 77.2 | 94.7 | growth at 0.1 µM [17]: 100%; inhibition (INH) [18]: Not Active; GI50 [19]: 61.1 µM; TGI [19]: > 100 µM; CC50 [19]: > 100 µM; activity at 0.25 h, 10 µM [20]: 98.2%; growth at 1 µM [21]: 100%; growth at 100 µM [22]: 63.6%; growth at 10 µM [23]: 71.5%; growth at 0.1 µM [24]: 89.6%; GI50 [25]: > 100 µM; LC50 [25]: > 100 µM; TGI [25]: > 100 µM; growth at 100 µM [26]: 26.7%; activity at 0.25 h, 50 µM [27]: 104%
2 | Cc1cc(C)cc(O[C@H](C)C(=O)Nc2ccc(F)c([N+](=O)[O-])c2)c1 | 100 | 40.9 | 79.1 | > 100 | 100 | > 100 | > 100 | > 100 | 73.7 | 100 | 85.5 | 94.2 | 98.8 | -29.4 | 71.8 | 93.5 | 96.4 | 89.5 | 73.5 | 95.9 | growth at 0.1 µM [17]: 99.1%; inhibition (INH) [18]: Not Active; GI50 [19]: 61.6 µM; TGI [19]: > 100 µM; CC50 [19]: > 100 µM; activity at 0.25 h, 10 µM [20]: 95.7%; growth at 1 µM [21]: 97.9%; growth at 100 µM [22]: 58.2%; growth at 10 µM [23]: 65.6%; growth at 0.1 µM [24]: 89.3%; GI50 [25]: > 100 µM; LC50 [25]: > 100 µM; TGI [25]: > 100 µM; growth at 100 µM [26]: 27.8%; activity at 0.25 h, 50 µM [27]: 96.6%
3 | Cc1ccc(-c2cc(C(N)=O)c3cc(Cl)ccc3n2)o1 | 87.2 | > 100 | > 100 | > 100 | 95 | 70.5 | > 100 | > 100 | 84.8 | 98.4 | 92.5 | 101 | 98.5 | 72.5 | 76.6 | 101 | 104 | 77.2 | 79 | 85.9 | growth at 0.1 µM [17]: 91.9%; inhibition (INH) [18]: Not Active; GI50 [19]: 63.9 µM; TGI [19]: > 100 µM; CC50 [19]: > 100 µM; activity at 0.25 h, 10 µM [20]: 98.6%; growth at 1 µM [21]: 90.6%; growth at 100 µM [22]: 39.9%; growth at 10 µM [23]: 60.5%; growth at 0.1 µM [24]: 98.2%; GI50 [25]: > 100 µM; LC50 [25]: > 100 µM; TGI [25]: > 100 µM; growth at 100 µM [26]: 25.5%; activity at 0.25 h, 50 µM [27]: 100%
